Legend:
Assay in all cases: MIC determination by CLSI standard method (broth dilution, Mueller Hinton Broth)
Assay type in all cases: cell-based
Conditions in all cases: cation-adjusted Mueller Hinton Broth, inoculum about 5×10^5 CFU/mL, read-out: Minimal inhibitory concentration (MIC)
[1] = system: MRSA (methicillin-resistant Staphylococcus aureus)
Method: (§1) The compounds of the invention were tested for antimicrobial activity.
(§2) Minimal inhibitory concentration (MIC: μg/ml) against different strains of bacteria was determined according to the standard method recommended by CLSI (clinical and laboratory standards institute). Samples were prepared by dissolving a test compound solution into DMSO (1280 μg/mL), followed by two fold dilution with DMSO. The sample was added to a bacteria suspension at the concentration of 5%, and MIC was determined. Mueller Hinton Broth was adjusted for cation concentration and used as a culture media. The inoculation concentration was about 5×10^5 CFU/mL.

[2] = system: PRSP (penicillin resistant Streptococcus pneumoniae)
Method: as §1, §2

[3] = system: VISA (vancomycin-intermediate Staphylococcus aureus)
Method: as §1, §2

[4] = system: VRE (vancomycin resistance enterococcus)
Method: as §1, §2

Row | MIC [1] | MIC [2] | MIC [3] | MIC [4] | SMILES
1 | ≤ 1 µg/mL | ≤ 1 µg/mL | ≤ 1 µg/mL | ≤ 1 µg/mL | CC(=S)NC[C@H]1CN(c2cc(F)c(N3CCON(C(=O)c4ccccc4O)CC3)c(F)c2)C(=O)O1 [Example B38]
2 | ≤ 1 µg/mL | ≤ 1 µg/mL | ≤ 1 µg/mL | ≤ 1 µg/mL | COC(=S)NC[C@H]1CN(c2ccc(N3CCNN(C(=O)Cn4cc(Cl)cn4)CC3)c(F)c2)C(=O)O1 [Example A91]
